From patent US20110230367A1, “Amphiphilic Peptides Promoting Production of Target miRNA and Method of Regulating Production of Target miRNA” (SNU R&DB FOUNDATION, priority 2009, published 2011) come the findings set out here.

Experiment [1] addresses pre-miR16-1. The experiment is described as follows: Dissociation constant by competitive fluorescence anisotropy with rhodamine-rev peptide probe. The class given is binding. As to conditions: Table 3, first generation peptides, 20° C., HEPES pH 7.5; read-out: Kd value with pre-miR16-1. Here is the method:
(§1) The binding affinity between the peptide synthesized in <Example 1> and pre-miRNA from <Example 2> were measured by fluorescence anisotropy using competitive binding method. A rev peptide with rhodamine attached at the N-terminal was used as a fluorescent probe and LS-55 luminescence spectrometer from Perkin-Elmer was use for analysis. A constant temperature of 20° C. was maintained by a water bath. The fluorescent intensity was measured by of 200 nM of rhodamine-rev peptide was measured with an excitation wavelength at 550 nm (band path 10 nm) and detection at 580 nm (band path 10 nm). The integration time […]. Each experimental value is the mean value of 5 measurements. A 20 mM of HEPES{4-(2-hydroxyethyl)-1-piperazineethanesulfonic acid} buffer (pH 7.5) containing 140 mM NaCl, 5 mM KCl and 1 mM MgCl2 was used for measuring the dissociation constant. The dissociation constant was determined according to the Mathematical Formula 1 and using Kaledia graph.
(§2) A and Ao are the fluorescence anistropy in the presence or absence of RNA, whereas ΔA is the difference between these two values. [RNA]0 and [Rh-rev]0 are initial concentrations of RNA and rev peptide binding with rhodamine.
(§3) According the method described in <Example 3>, the dissociation constant between second generation peptide and 2 pre-miRNAs synthesized from <Example 2> was determined using fluorescent polarization detection method and fluorescent probe molecule.

For experiment [2], the target named is pre-let7a-1. The experiment is described as above. Format: binding. Conditions: Table 3, first generation peptides, 20° C., HEPES pH 7.5; read-out: Kd value with pre-let7a-1. Here is the method:
as §1, §2, §3

Experiment [3] deals with recombinant human Dicer processing pre-miR16-1. The experiment is described as follows: Dicer activity assay in the presence of peptide, substrate pre-miR16-1. The class given is biochemical. Conditions: 400 nM peptide, pre-miR16-1 substrate, FIG. 2. Here is the method:
(§4) Two types of pre-miRNA (pre-let7a-1, pre-miR16-1) used as the substrate for the Dicer enzyme activity assay was ordered and manufactured by ST Pharm Co., Ltd (FIG. 1). For Dicer activity assay, the 5′ end of the synthesized pre-miRNA was labeled with ^32p isotope. Two pmole of each pre-miRNA was isotope labeled with […] of [g-^32P]ATP (New England Biolabs) using 10 units of T4 polynucleotide kinase (New England Biolabs). Total volume of 10 μl was isotope labeled for 1 hr at 37° C. The isotope labeled RNA obtained after the reaction was purified using G-25 Sephadex column (Sigma). The purified substrate was used for measuring Dicer enzyme activity. Total reaction mixture of 30 μl containing 1 nM of isotope labeled pre-miRNA and 0.001 u/μl of recombinant human Dicer (Genlantis, CA, USA) were incubated at 37° C. in 24 mM 4-(2-hydroxyethyl)-1-piperazineethanesulfonic acid, HEPES) buffer system containing 200 mM NaCl, 0.04 mM EDTA, 1 mM ATP and 2.5 mM MgCl2(pH 8.0). After reacting for 0, 10, 30, 60 or 120 min in the presence of 400 nM concentration of 2b or 2c peptide, 3 μl of each reaction mixture was mixed with 5 μl of RNA gel loading buffer {95% formamide, 10 mM ethylenediaminetetraacetic acid (EDTA), 0.05% FF (xylene cyanol FF)} and incubated for 5 min at 65° C. The amount of the reaction product was determined by gel running in 15% polyacrylamide gel containing 7M urea, and then the initial reaction velocity (V0) from each reaction was compared. The initial reaction velocity (V0) of the enzyme is the reaction velocity of the initial linear time (until 30 min). Each initial velocity was normalized with the initial velocity from each substrate condition without peptide treatment. The initial reaction velocity of Dicer for pre-let7a-1 and pre-miR16-1 without peptide treatment were […] and 0.018 fmole/min, respectively. Each of the initial reaction velocity is a mean data of more than 3 measurements, and the standard deviation is shown as error bars.

In experiment [4] the test system is recombinant human Dicer processing pre-let7a-1. The experiment is described as follows: Dicer activity assay in the presence of peptide, substrate pre-let7a-1. The class given is biochemical. Conditions: 400 nM peptide, pre-let7a-1 substrate, FIG. 2. Here is the method:
as §4, with “[…],” for “60 or 120 min in the presence of 400 nM concentration of 2b or 2c peptide,”

As for “LKKLLKLWKKLLKLAG [Peptide 1e, Ac-LKKLLKLWKKLLKLAG]”, the Kd (commonly the concentration at which binding is half-saturated) came to 27 nM in experiment [1] and 20 nM in experiment [2]. The “initial reaction velocity (V0) of Dicer, normalized to no peptide” value in experiment [3] and in experiment [4] was “did not increase” each time.
